Converted amounts (≈) assume the structure as drawn.
Details: buffer; pH 7.4; 200.0 µM

solubility kinetic | Compound
6.2 µg/mL (≈ 21.9 µM) | O=C(Nc1nccs1)c1ccccc1Br
36.9 µg/mL (≈ 135 µM) | O=C(CSCc1ccco1)N1CCc2ccccc21
> 31.8 µg/mL | Cc1nc2ccccc2c2c1C(=O)NC2=O
> 43.7 µg/mL | COCCNC(=O)/C(C#N)=C/c1ccc(O)c([N+](=O)[O-])c1
21.9 µg/mL (≈ 96.4 µM) | Cc1ccc(C(=O)Nc2nccc(C)n2)cc1
0.8 µg/mL (≈ 2.73 µM) | COc1cc2ccccc2cc1C(=O)Nc1ccc(O)cc1
< 0.3 µg/mL | O=C(Nc1ccc(Br)cn1)C1CCN(S(=O)(=O)c2cccs2)CC1
> 55.1 µg/mL | N#Cc1ccc(C(=O)OCC(=O)N2CCN(C(=O)c3ccco3)CC2)cc1
> 45.8 µg/mL | O=C(CNC(=O)c1cccc(F)c1)N/N=C/c1cccs1
> 45.7 µg/mL | O=C(NC1CCC1)C1CCC(=O)N(Cc2ccccc2F)C1 (centres undefined)
> 29.7 µg/mL | Cc1ccc(CNc2cccnc2)cc1
0.5 µg/mL (≈ 1.55 µM) | COc1ccc(NC(=O)Nc2cccc3ccccc23)c(OC)c1
> 39.5 µg/mL | N#Cc1cnc(SCC(=O)N2CCCC2)nc1N
3.7 µg/mL (≈ 7.98 µM) | COc1ccc(OC)c(NC(=O)c2cc3c(cc2Cl)N2CCCCCC2=NS3(=O)=O)c1
> 54.4 µg/mL | COc1ccc(N(CC(=O)N2CCOCC2)S(C)(=O)=O)cc1Cl
< 0.2 µg/mL | Cc1nc(N(C)C)c2sc(=S)n(Cc3ccccc3)c2n1
> 35.3 µg/mL | O=C(COc1ccccc1O)NC1CCCC1
3 µg/mL (≈ 8.9 µM) | O=C(NC(=S)Nc1ccc(Br)cn1)c1cccnc1
2.8 µg/mL (≈ 8.13 µM) | O=C(NC1CCN(Cc2ccc3ccccc3c2)CC1)c1ccccc1
5.9 µg/mL (≈ 20.1 µM) | O=C(COC(=O)CCC1CCCC1)Nc1ccc(F)cc1
> 39.6 µg/mL | COc1ccc(S(=O)(=O)Nc2cccnc2)cc1

solubility kinetic | Compound
> 43.6 µg/mL | COC(=O)C(N)Cc1ccc(OC)c([N+](=O)[O-])c1.Cl (centres undefined)
42.4 µg/mL (≈ 137 µM) | Cc1ccc(-c2nc(-c3cccnc3)sc2CC(=O)O)cc1
> 36.2 µg/mL | CC1CCCC(C)N1/N=C/c1ccc(C#N)cc1 (centres undefined)
40.7 µg/mL (≈ 139 µM) | COc1ccc(S(=O)(=O)NCCc2ccncc2)cc1
> 42.8 µg/mL | O=C(O)C1CC=CCC1C(=O)Nc1ccc2c(c1)CCC2 (centres undefined)
0.6 µg/mL (≈ 1.82 µM) | Cc1nc2ccc([N+](=O)[O-])cc2c(=O)n1Cc1ccc(Cl)cc1
3 µg/mL (≈ 8.19 µM) | COc1ccc(NC(=O)COC(=O)c2ccc3ccccc3n2)c(OC)c1
38.3 µg/mL (≈ 130 µM) | Cc1cc(=O)[nH]c(SCC(=O)N2C(C)CCCC2C)n1 (centres undefined)
49 µg/mL (≈ 124 µM) | CC(C)C(=O)Nc1cc(S(=O)(=O)N2CCOCC2)ccc1N1CCCCC1
16.2 µg/mL (≈ 35.1 µM) | CN(C(=O)CSc1nc2ccccc2c(=O)n1-c1ccccc1F)C1CCS(=O)(=O)C1 (centres undefined)
1.7 µg/mL (≈ 5.73 µM) | CC(C)C(C(=O)NC1=NCCS1)c1ccc(Cl)cc1 (centres undefined)
49 µg/mL (≈ 140 µM) | O=S(=O)(CCN1CCN(c2ccccn2)CC1)c1ccc(F)cc1
> 44.4 µg/mL | CC(C)NCC(O)COc1cccc2ccccc12.Cl (centres undefined)
> 43.5 µg/mL | O=C(O)/C=C/c1cn(-c2ccccc2)nc1-c1ccccc1
< 0.7 µg/mL | Cc1ccccc1OCC(=O)Nc1ccccc1-c1ccccc1
50 µg/mL (≈ 138 µM) | O=C1CN(C(=O)COC(=O)c2c(F)cccc2Cl)c2ccccc2N1
37 µg/mL (≈ 136 µM) | C/C(=N\O)C(C)(C)Nc1cccc(Br)c1
18.3 µg/mL (≈ 38.6 µM) | O=C(COC(=O)/C=C/c1cccc(F)c1)Nc1cccc(S(=O)(=O)NC2=NCCCCC2)c1
> 40 µg/mL | COc1ccc(NC(=S)N2CCCC2)c(OC)c1
> 67.3 µg/mL | CC(=O)Nc1ccc(S(=O)(=O)N(C)CC(=O)N2CCN(C(=O)c3ccco3)CC2)cc1
19.9 µg/mL (≈ 57.8 µM) | NS(=O)(=O)c1ccc(N=Cc2c(O)c3ccccc3oc2=O)cc1

solubility kinetic | Compound
> 44.6 µg/mL | Cc1ccc(C(=O)OCC(=O)N(C)c2ccccc2)c(C)c1
> 63.8 µg/mL | O=C(CCNC(=O)c1ccccc1)Nc1ccc(S(=O)(=O)Nc2ncccn2)cc1
> 43.8 µg/mL | O=C(NCCc1ccccn1)c1ccc(OC(F)F)cc1
46.8 µg/mL (≈ 147 µM) | O=C(O)c1ccccc1C(=O)N(c1ccccc1)c1ccccc1
< 0.6 µg/mL | Cc1cc2c(sc3c(C)ccc(C)c32)c(C)n1.Cl
28.5 µg/mL (≈ 58.1 µM) | COc1ccc(S(=O)(=O)N2CCCCC2)cc1NC(=O)Cn1cnc2c1c(=O)n(C)c(=O)n2C
> 47.4 µg/mL | COc1ccc(C(=O)OC(C)CN2CCOCC2)cc1.Cl (centres undefined)
> 43.6 µg/mL | CCN(Cc1ccccc1)C(=O)CSc1nncn1C
> 48.6 µg/mL | Cc1nc(C(F)(F)F)ccc1C(=O)NCC(O)c1ccccc1 (centres undefined)
> 62 µg/mL | CCN(CC)C(=O)c1cccc(NC(=O)C2CCN(C(=O)c3cccs3)CC2)c1
18.3 µg/mL (≈ 50.2 µM) | COc1ccc(CNC(=O)COC(=O)c2cc(C)nc3ccccc23)cc1
8.1 µg/mL (≈ 29.6 µM) | Cc1c(C(=O)NCc2ccco2)oc2c(F)cccc12
> 44.7 µg/mL | CCOc1ccc(-c2c(=O)n(O)c3ccccc3[n+]2[O-])cc1
49.3 µg/mL (≈ 138 µM) | CCCn1c(C(O)c2cc(OC)c(OC)c(OC)c2)nc2ccccc21 (centres undefined)
34.7 µg/mL (≈ 128 µM) | O=S(=O)(CCN1CCSCC1)c1ccccc1
> 48.8 µg/mL | OCCN1CCN(c2cc(C(F)(F)F)nc3ccccc23)CC1
> 30.5 µg/mL | CCNC(=S)NNC(=O)CC(C)C
17.7 µg/mL (≈ 50.5 µM) | CCN(CC)C(=O)Cc1c(OC)ccc2cc(Br)ccc12
11.9 µg/mL (≈ 52.6 µM) | O=[N+]([O-])c1cccc(/C=C/c2ccncc2)c1

The remaining lines, values behind:

Compound | solubility kinetic
CCCCCn1c(=O)c(C(=O)OCC)c(Cl)c2ccccc21 | 6.5 µg/mL (≈ 20.2 µM)
Cc1cccc(CNC(=O)C2CCC(=O)N(C3CCCCCC3)C2)c1 (centres undefined) | > 51.4 µg/mL
COc1ccc(CC(=O)Nc2nccs2)cc1S(=O)(=O)N1CCOCC1 | > 59.6 µg/mL
CC(CCc1ccc(O)cc1)NC1c2ccccc2-c2ccccc21 (centres undefined) | 26.1 µg/mL (≈ 79.2 µM)
CCOC(=O)Cc1csc(NS(=O)(=O)c2ccc([N+](=O)[O-])cc2)n1 | > 55.7 µg/mL
Cc1ccc(C(=O)OC(C)CN2CCOCC2)cc1.Cl (centres undefined) | 38.9 µg/mL
O=C1NC(=O)C(c2ccc(Cl)cc2)N1 (centres undefined) | > 31.6 µg/mL
Cc1cc(C)c(C#N)c(N2CCN(c3ccccc3F)CC2)n1 | 3.8 µg/mL (≈ 12.2 µM)
CCOc1nc2ccccc2nc1NS(=O)(=O)c1ccc(Cl)cc1 | > 54.6 µg/mL
CCCCCOc1ccc(C(=O)OC(C)C(=O)NCc2ccco2)cc1 (centres undefined) | 2.9 µg/mL (≈ 8.07 µM)
COc1ccccc1NC(=O)COc1ccc2c(c1)OCO2 | 2.5 µg/mL (≈ 8.3 µM)
CCCCNC(=O)c1cc(S(=O)(=O)N2CCCCC2)oc1C | 24 µg/mL (≈ 73.1 µM)
O=C(NCCc1ccccc1)C1CCCN(c2cnccn2)C1 (centres undefined) | 45.9 µg/mL (≈ 148 µM)
Cn1c(N)c(C(=O)COC(=O)Cc2c(F)cccc2Cl)c(=O)n(C)c1=O | 31.9 µg/mL (≈ 83.1 µM)
Cc1nc(Cl)sc1C(=O)Nc1ccc(C(C)(C)C)cc1 | 11.3 µg/mL (≈ 36.6 µM)
O=C(c1ccccc1)c1ccccc1N1C(=O)C=CC1=O | > 41.6 µg/mL
Cc1cc(NC(=O)CN2CCC(C)CC2)no1.O=C(O)C(=O)O | > 49.1 µg/mL
O=S(=O)(c1ccccc1)N(CC1CO1)c1ccccc1 (centres undefined) | > 43.4 µg/mL
O=C(CSc1nc2ncccc2[nH]1)NC1CCCCC1 | > 43.6 µg/mL
CC1C/C(=N\NC(=O)c2cccnc2)CC(C)(C)C1 (centres undefined) | > 38.9 µg/mL

Compound | solubility kinetic
COc1ccc(OC)c(CNS(=O)(=O)c2cn(C)cn2)c1 | 46.5 µg/mL (≈ 149 µM)
CCOc1cc(S(=O)(=O)Nc2ccncc2)ccc1F | > 44.4 µg/mL
C/C(CC(=O)Nc1ccc(Cl)cc1C(F)(F)F)=N\NC(N)=S | > 52.9 µg/mL
CC(C)(C)C(=O)COC(=O)C1=NN(c2ccccc2)C(=O)CC1 | > 47.5 µg/mL
CS(=O)(=O)N(CC(=O)Nc1c(F)cccc1F)Cc1ccccc1 | > 53.2 µg/mL
Br.COc1ccc(C(=O)CN2CCCCC2)cc1 | > 47.1 µg/mL
Cc1ccc2c(C)c(C(=O)N(C)Cc3ccncn3)oc2c1C | 32.7 µg/mL (≈ 106 µM)
COc1ccc(CC(=O)NCc2ccccc2)cc1 | 22.6 µg/mL (≈ 88.5 µM)
CCOC(=O)C1CCN(c2ccc([N+](=O)[O-])c(C(C)=O)c2)CC1 | > 48.1 µg/mL
CC(C)c1cc(C(C)C)c(S(=O)(=O)N2CCNCC2)c(C(C)C)c1 | 39.3 µg/mL (≈ 111 µM)
CN(C(=O)c1cc(-c2ccccc2)on1)C1CCCCC1 | 9.7 µg/mL (≈ 34.1 µM)
COc1cccc(NC(=O)COc2cccnc2[N+](=O)[O-])c1 | 5.8 µg/mL (≈ 19.1 µM)
COc1ccc(C=O)cc1CSc1ncccc1C(=O)O | > 45.5 µg/mL
CN1CCN(Cc2ccc3ccccc3c2)CC1 | 20.6 µg/mL (≈ 85.7 µM)
OC1=C(O)c2nc3cc(C(F)(F)F)ccc3nc21 | > 38.1 µg/mL
O=C1NC(=Nc2ccc(F)cc2)SC1Cc1ccc(F)cc1 (centres undefined) | 1 µg/mL (≈ 3.14 µM)
Cc1ccc(NS(=O)(=O)c2c(C)noc2C)cc1 | > 39.9 µg/mL
S=C(NCc1ccncc1)Nc1ccc(Br)cc1Cl | 40.9 µg/mL (≈ 115 µM)
COc1ccc2c(c1OC)C(=O)N(c1ccc(O)cc1)C2 | 6.3 µg/mL (≈ 22.1 µM)
Nc1ncnc2c1ncn2[C@@H]1O[C@H](CO)[C@@H](O)[C@H]1O | > 40.1 µg/mL

Compound | solubility kinetic
COc1ccc2nc(SCC(=O)Nc3ccccc3OC)[nH]c2c1 | 39.6 µg/mL (≈ 115 µM)
COc1ccc(NC(=O)c2cc(C)cc(C)c2)cc1[N+](=O)[O-] | < 0.3 µg/mL
O=S(=O)(Cc1ccccc1Cl)NCCc1ccc(F)cc1 | > 49.2 µg/mL
O=C(COC(=O)/C=C/c1ccccc1)NC(=O)NC1CCCCC1 | 8.8 µg/mL (≈ 26.6 µM)
N#C/C(=C(/O)c1ccc(Cl)c([N+](=O)[O-])c1)c1nc2ccccc2[nH]1 | 0.6 µg/mL (≈ 1.76 µM)
CCCCn1c(SCC(=O)N(C)C)nnc1-c1ccncc1 | > 47.9 µg/mL
CN(C)c1cc(-c2ccc(Cl)cc2)oc(=O)c1Cl | 1.7 µg/mL (≈ 5.98 µM)
O=C(NC1CC1)C1CCN(C(=O)c2ccc(Cl)cc2)CC1 | 45.8 µg/mL (≈ 149 µM)
C/C=C(\C)C(=O)N1CCC(C(=O)c2ccccc2)CC1 | > 40.7 µg/mL
COc1ccc(Nc2cc(Nc3cccc(OC)c3)ncn2)cc1 | 0.5 µg/mL (≈ 1.55 µM)
O=C(NCCN1CCCCC1)Nc1ccccc1F | > 39.8 µg/mL
COc1ccc(CC(=O)N/N=C/c2cccs2)cc1OC | > 45.7 µg/mL
COC(=O)c1sccc1NC(=S)Nc1ccc(OC)cc1 | 35.3 µg/mL (≈ 109 µM)
COC(=O)NCC(c1ccco1)N1CCN(c2ccc(OC)cc2)CC1 (centres undefined) | > 53.9 µg/mL
COc1ccccc1NC(=O)NC1CCCc2ccccc21 (centres undefined) | 0.8 µg/mL (≈ 2.7 µM)
CCSC1=NN2CCS(=O)(=O)N=C2S1 | > 37.7 µg/mL
NC(Cc1ccccc1)c1nc(-c2ccccc2)no1 (centres undefined) | > 39.8 µg/mL
CN(CCC#N)C(=O)c1cc2c(s1)-c1ccccc1SC2 | 24.9 µg/mL (≈ 79.2 µM)

Reference: PubChem BioAssay AID1996
